Reference: article PMC10895652, “Preclinical Evaluation of Novel Positron Emission Tomography (PET) Probes for Imaging Leucine-Rich Repeat Kinase 2 (LRRK2)” (Journal of Medicinal Chemistry, 2024)

Assays:
LRRK2 [1] = target: T1, LRRK2 (Mus musculus, UniProt Q5S006); test: PET imaging in LPS-injected neuroinflammatory mouse model; assay type: in vivo; conditions: brain, LPS-injected mice versus sham group (PBS)
T1 construct: from tissue; host or cells: brain of living CD-1 mice, i.c.v; LPS or saline
Description: The CD-1 mice were anesthetized and secured in a stereotaxic frame. The skull was exposed and stereotaxic coordinates (−2.6 mm dorsal/ventral, −1.5 mm lateral, and −0.2 mm anterior/posterior from bregma) according to the procedure by Haley and McCormick.[43] The i.c.v. injections of 10 μg (in 2 μL of saline) of LPS and saline (control group) injections were administered using a microsyringe. The behavior of each mouse was characterized and recorded in the form of scores, including appearance, activity, level of consciousness, eyes, respiration rate, and respiration quality. Scores were determined by summing up the individual scores (Figure S10).
(§1) The general procedure for PET studies was described previously[35],[41] with minor modification in this work. Briefly, PET scans were carried out by a Genisys 4 PET scanner (Sofie Biosciences, Culver, CA). Mice were kept under anesthesia using 1–2% (v/v) isoflurane during the scan. The radiotracer (ca. 45 μCi/100 μL) was injected into the tail vein via a preinstalled catheter. A dynamic scan in 3D list mode was acquired for 60 min. The PET dynamic images were reconstructed using G4 software (Analysis Tools and System Setup/Diagnostics Tool, Sofie Biosciences). The radioactivity was decay-corrected and expressed as the standardized uptake value: SUV = (radioactivity per mL tissue/injected radioactivity) × body weight.

LRRK2-G2019S = test: PET imaging in LRRK2-G2019S mutant versus wild-type mice; assay type: in vivo, mouse; conditions: brain, G2019S mice versus WT mice, p ≤ 0.001
Description: as §1

[2] = Ex vivo whole-body biodistribution in mice; design: species or system CD-1 mice; conditions: for Ex vivo biodistribution: mean ± SD, n = 4
Description: The general procedure for ex vivo biodistribution studies was described previously[35],[41] with minor modification in this work. Briefly, a solution of [^18F]4 (50 μCi/100 μL) was injected into CD-1 mice via tail vein. These mice (each time point n = 4) were sacrificed at 5, 15, 30, and 60 min post tracer injection. Major organs, including whole brain, heart, liver, lung, spleen, kidneys, small intestine (including contents), muscle, and blood samples, were quickly harvested and weighted. The radioactivity present in these tissues was measured using a Cobra Model 5002/5003 γ counter, and all radioactivity measurements were automatically decay-corrected based on the half-life of fluorine-18. The results are expressed as the percentage of injected dose per gram of wet tissue (%ID/g).

LRRK2 [3] = target: T2, LRRK2 (Rattus norvegicus, UniProt F1LNJ1); test: In vitro autoradiography in rat brain sections; assay type: binding
T2 construct: from tissue; host or cells: rat brain (Sprague-Dawley rats)
Description: The general procedure for autoradiography studies was described previously with minor revision in this work.[36],[40] Brain sections from rats were preincubated with Tris-HCl buffer (50 mM), MgCl2 (1.2 mM) and CaCl2 (2 mM) solution for 20 min at ambient temperature, followed by incubation with [^11C]3 and [^18F]4 (0.48 nM). […] After incubation, brain sections were rinsed with ice-cold buffer 3 times for 2 min and dipped in cold distilled water for 10 s. The brain sections were dried with cold air and then placed on imaging plates (BAS-MS2025, GE Healthcare, NJ) for optimized contact periods. Autoradiograms were obtained and regions of interest (ROIs) were carefully drawn with the reference of naked-eye observation. Radioactivity was measured using an Amersham Typhoon 5 analyzer system and expressed as photostimulated luminescence values per unit area (PSL/mm^2) or normalized to % of radioactivity vs control.

[4] = Radiometabolic analysis in mouse brain homogenate; assay type: in vivo; conditions: 30 min post tracer administration
Description: With the established good BBB penetration ability of [^18F]4, we then performed ex vivo biodistribution studies to obtain more in-depth information on the whole-body distribution and clearance of [^18F]4. Mice were sorted into four groups based on their survival intervals (5, 15, 30, and 60 min) after intravenous administration of [^18F]4. […] To investigate the in vivo stability of [^18F]4 in mouse brains, we conducted a radiometabolic analysis in mouse brain homogenate at 30 min post tracer administration.

[5] = Radiometabolite analysis in rat plasma (radio-HPLC); assay type: in vivo; conditions: rats
Description: The promising pharmacological, pharmacokinetic, and in vitro autoradiographic data encouraged us to carry out preliminary dynamic PET imaging studies of [^11C]3 and [^18F]4. […] Given the superiority of fluorine-18 such as clean positron emission, low positron range, and relatively long half-life compared with carbon-11, [^18F]4 was subjected to further investigation (Figure 6). A blocking scan was carried out with intravenous administration of compound 3 (1 mg/kg) prior to tracer injection. For both baseline and blocking studies, blood samples were extracted from the artery. Both whole-blood and plasma radioactivity concentrations were evaluated, and radiometabolites were measured in plasma samples by radio high-performance liquid chromatography (HPLC) to generate metabolite-corrected input function (Figure S2). Compartmental analyses with one- and two-tissue compartment models (1TCM and 2TCM) were carried out on regional time–activity curves. […] In the baseline study, VT of various brain regions ranged from 2.2 to 2.9 mL/cm^3, confirming the high binding of the radiotracer.

T2 sequence (F1LNJ1 1-2526): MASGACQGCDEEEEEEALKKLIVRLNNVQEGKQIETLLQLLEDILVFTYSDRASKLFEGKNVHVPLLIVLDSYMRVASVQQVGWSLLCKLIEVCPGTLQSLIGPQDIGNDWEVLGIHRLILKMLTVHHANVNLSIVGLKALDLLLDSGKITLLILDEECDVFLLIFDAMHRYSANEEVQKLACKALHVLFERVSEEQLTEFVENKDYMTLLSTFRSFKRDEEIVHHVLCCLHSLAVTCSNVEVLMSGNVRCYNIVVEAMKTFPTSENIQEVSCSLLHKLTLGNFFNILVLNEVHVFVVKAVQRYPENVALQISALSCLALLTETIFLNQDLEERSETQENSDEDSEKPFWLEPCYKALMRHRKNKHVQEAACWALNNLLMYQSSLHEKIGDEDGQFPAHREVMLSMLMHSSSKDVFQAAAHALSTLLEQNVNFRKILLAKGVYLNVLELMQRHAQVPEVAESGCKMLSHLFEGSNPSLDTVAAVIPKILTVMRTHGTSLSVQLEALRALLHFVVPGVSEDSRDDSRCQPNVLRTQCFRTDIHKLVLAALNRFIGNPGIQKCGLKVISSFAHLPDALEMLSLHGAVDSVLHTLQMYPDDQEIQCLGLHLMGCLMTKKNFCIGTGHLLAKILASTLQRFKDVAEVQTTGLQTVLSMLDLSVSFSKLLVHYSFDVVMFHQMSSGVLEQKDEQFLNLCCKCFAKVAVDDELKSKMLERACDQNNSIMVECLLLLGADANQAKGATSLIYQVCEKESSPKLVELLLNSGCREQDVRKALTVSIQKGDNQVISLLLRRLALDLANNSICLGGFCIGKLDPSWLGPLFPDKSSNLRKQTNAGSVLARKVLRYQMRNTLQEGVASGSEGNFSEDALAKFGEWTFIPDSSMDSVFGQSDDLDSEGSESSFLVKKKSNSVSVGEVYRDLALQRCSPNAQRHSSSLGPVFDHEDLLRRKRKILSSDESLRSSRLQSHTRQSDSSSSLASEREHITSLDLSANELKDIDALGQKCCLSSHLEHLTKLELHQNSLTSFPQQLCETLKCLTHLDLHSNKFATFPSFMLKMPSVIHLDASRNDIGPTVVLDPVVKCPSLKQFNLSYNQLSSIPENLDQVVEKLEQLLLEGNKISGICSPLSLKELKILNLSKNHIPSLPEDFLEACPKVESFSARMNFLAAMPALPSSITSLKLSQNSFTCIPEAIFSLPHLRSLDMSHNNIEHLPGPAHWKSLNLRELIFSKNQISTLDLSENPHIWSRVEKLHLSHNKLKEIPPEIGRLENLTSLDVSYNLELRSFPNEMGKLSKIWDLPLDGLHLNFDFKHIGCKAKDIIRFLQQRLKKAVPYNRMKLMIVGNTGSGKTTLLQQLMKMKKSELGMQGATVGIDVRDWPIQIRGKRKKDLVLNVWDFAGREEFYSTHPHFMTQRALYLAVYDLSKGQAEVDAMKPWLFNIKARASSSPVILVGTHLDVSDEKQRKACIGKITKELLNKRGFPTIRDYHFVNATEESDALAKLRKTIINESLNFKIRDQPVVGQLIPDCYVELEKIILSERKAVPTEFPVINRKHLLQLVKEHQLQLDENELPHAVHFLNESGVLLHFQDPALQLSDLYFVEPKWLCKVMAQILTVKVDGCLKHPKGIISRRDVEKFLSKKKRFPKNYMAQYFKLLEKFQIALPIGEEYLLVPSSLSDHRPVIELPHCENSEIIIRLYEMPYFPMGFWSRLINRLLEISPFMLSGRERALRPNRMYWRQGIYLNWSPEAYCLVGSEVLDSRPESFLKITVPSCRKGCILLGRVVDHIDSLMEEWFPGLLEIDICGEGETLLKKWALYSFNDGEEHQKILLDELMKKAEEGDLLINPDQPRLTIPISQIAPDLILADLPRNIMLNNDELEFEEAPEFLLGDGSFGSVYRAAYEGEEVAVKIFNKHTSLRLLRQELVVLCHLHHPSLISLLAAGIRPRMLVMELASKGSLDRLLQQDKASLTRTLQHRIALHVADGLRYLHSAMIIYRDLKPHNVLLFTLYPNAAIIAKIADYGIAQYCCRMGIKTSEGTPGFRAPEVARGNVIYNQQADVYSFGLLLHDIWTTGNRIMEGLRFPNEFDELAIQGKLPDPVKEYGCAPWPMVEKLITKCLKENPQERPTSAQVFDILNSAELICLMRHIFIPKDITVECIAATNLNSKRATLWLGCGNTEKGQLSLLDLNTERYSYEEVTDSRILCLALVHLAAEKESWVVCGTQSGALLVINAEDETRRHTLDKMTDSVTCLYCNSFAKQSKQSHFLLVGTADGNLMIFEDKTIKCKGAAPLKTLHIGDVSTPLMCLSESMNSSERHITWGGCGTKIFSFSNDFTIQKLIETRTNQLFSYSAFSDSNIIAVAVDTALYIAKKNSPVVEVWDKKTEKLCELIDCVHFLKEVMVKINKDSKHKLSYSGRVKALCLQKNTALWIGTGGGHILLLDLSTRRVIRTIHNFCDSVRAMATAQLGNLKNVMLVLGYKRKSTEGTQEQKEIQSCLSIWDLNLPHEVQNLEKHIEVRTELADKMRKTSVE
T1 sequence (Q5S006 whole entry): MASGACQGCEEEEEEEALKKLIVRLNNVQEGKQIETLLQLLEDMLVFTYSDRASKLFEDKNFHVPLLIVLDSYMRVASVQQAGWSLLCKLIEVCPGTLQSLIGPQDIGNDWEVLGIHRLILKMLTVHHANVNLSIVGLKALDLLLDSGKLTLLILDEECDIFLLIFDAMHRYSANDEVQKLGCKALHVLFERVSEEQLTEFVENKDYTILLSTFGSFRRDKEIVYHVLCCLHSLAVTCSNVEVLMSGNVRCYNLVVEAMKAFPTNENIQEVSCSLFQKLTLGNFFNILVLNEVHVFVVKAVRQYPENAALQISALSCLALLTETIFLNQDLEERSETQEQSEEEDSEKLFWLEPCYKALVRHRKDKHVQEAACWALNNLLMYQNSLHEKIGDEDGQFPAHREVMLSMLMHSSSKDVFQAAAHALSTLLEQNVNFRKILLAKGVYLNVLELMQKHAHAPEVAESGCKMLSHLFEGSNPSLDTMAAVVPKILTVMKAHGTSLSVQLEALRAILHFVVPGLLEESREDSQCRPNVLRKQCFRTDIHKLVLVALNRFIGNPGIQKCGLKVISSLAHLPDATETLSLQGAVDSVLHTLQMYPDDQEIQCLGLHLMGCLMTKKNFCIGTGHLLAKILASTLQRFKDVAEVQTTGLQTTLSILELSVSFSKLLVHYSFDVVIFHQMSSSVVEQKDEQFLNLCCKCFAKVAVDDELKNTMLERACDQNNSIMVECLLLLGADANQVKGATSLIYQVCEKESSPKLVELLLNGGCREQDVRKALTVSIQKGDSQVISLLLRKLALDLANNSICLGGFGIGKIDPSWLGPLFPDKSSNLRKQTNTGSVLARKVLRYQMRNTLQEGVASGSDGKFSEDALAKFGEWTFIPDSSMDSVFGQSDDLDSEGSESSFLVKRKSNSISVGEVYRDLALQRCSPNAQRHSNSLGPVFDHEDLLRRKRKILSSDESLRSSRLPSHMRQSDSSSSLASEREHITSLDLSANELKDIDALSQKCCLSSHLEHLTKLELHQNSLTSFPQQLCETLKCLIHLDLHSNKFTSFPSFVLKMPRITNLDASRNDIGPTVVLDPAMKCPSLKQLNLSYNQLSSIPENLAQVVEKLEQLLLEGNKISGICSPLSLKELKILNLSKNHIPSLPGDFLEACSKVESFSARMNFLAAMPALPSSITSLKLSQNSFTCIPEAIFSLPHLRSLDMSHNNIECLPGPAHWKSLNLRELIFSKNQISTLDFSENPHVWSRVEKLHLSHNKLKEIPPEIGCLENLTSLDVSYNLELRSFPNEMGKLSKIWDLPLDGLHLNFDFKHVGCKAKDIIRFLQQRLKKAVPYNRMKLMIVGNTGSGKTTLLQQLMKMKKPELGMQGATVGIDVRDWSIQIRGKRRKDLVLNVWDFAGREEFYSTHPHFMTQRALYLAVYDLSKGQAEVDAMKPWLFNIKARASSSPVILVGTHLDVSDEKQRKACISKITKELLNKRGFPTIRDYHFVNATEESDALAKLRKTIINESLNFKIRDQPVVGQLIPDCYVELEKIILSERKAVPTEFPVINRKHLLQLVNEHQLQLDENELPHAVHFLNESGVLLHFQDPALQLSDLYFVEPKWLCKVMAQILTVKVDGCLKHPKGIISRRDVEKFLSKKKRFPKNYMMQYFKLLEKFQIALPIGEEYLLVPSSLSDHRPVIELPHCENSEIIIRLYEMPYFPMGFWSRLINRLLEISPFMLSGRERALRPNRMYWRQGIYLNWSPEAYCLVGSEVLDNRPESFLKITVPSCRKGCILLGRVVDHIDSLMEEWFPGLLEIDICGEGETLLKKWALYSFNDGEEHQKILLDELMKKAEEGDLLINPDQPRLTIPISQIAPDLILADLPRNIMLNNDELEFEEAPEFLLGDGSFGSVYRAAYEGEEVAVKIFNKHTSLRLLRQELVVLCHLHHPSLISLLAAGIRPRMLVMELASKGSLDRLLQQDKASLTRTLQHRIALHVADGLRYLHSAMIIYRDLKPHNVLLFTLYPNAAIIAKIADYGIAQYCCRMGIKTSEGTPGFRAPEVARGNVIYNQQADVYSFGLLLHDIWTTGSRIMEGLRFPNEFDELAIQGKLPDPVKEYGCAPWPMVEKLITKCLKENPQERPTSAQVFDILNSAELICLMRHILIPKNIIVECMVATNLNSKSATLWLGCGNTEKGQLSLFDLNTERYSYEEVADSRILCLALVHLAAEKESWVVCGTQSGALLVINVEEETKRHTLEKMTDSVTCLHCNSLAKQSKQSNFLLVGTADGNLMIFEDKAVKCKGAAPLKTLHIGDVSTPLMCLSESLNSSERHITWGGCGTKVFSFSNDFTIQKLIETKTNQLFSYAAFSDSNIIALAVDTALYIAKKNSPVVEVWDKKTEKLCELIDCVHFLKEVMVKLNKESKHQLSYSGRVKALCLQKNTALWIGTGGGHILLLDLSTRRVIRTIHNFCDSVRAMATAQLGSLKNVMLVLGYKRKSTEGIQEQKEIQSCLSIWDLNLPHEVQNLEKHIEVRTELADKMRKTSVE

increase of radioactivity based on the AUCs (LRRK2 [1]): 28%
de-radiofluorination in vivo ([2]; biodistribution study, up to 60 min): no remarkable de-radiofluorination
Ex vivo biodistribution ([2]; blood, 5 min): 1.98 ± 0.08 %ID/g
Ex vivo biodistribution ([2]; blood, 15 min): 1.12 ± 0.16 %ID/g
Ex vivo biodistribution ([2]; blood, 30 min): 0.60 ± 0.08 %ID/g
Ex vivo biodistribution ([2]; blood, 60 min): 0.37 ± 0.09 %ID/g
Ex vivo biodistribution ([2]; bone, 5 min): 2.89 ± 2.05 %ID/g
Ex vivo biodistribution ([2]; bone, 15 min): 1.06 ± 0.23 %ID/g
Ex vivo biodistribution ([2]; bone, 30 min): 0.57 ± 0.05 %ID/g
Ex vivo biodistribution ([2]; bone, 60 min): 0.82 ± 0.22 %ID/g
Ex vivo biodistribution ([2]; brain, 5 min): 3.61 ± 0.74 %ID/g
Ex vivo biodistribution ([2]; brain, 15 min): 0.91 ± 0.21 %ID/g
Ex vivo biodistribution ([2]; brain, 30 min): 0.14 ± 0.01 %ID/g
Ex vivo biodistribution ([2]; brain, 60 min): 0.04 ± 0.01 %ID/g
Ex vivo biodistribution ([2]; heart, 5 min): 3.63 ± 0.10 %ID/g
Ex vivo biodistribution ([2]; heart, 15 min): 1.49 ± 0.17 %ID/g
Ex vivo biodistribution ([2]; heart, 30 min): 0.49 ± 0.07 %ID/g
Ex vivo biodistribution ([2]; heart, 60 min): 0.25 ± 0.03 %ID/g
Ex vivo biodistribution ([2]; kidneys, 5 min): 9.96 ± 1.01 %ID/g
Ex vivo biodistribution ([2]; kidneys, 15 min): 6.41 ± 0.76 %ID/g
Ex vivo biodistribution ([2]; kidneys, 30 min): 2.74 ± 0.12 %ID/g
Ex vivo biodistribution ([2]; kidneys, 60 min): 1.32 ± 0.15 %ID/g
Ex vivo biodistribution ([2]; liver, 5 min): 24.68 ± 10.36 %ID/g
Ex vivo biodistribution ([2]; liver, 15 min): 15.53 ± 2.40 %ID/g
Ex vivo biodistribution ([2]; liver, 30 min): 7.34 ± 0.78 %ID/g
Ex vivo biodistribution ([2]; liver, 60 min): 3.97 ± 1.30 %ID/g
Ex vivo biodistribution ([2]; lungs, 5 min): 8.88 ± 2.99 %ID/g
Ex vivo biodistribution ([2]; lungs, 15 min): 5.46 ± 2.28 %ID/g
Ex vivo biodistribution ([2]; lungs, 30 min): 2.86 ± 0.67 %ID/g
Ex vivo biodistribution ([2]; lungs, 60 min): 1.65 ± 0.35 %ID/g
Ex vivo biodistribution ([2]; muscle, 5 min): 2.34 ± 1.06 %ID/g
Ex vivo biodistribution ([2]; muscle, 15 min): 2.04 ± 2.24 %ID/g
Ex vivo biodistribution ([2]; muscle, 30 min): 0.38 ± 0.11 %ID/g
Ex vivo biodistribution ([2]; muscle, 60 min): 0.39 ± 0.40 %ID/g
Ex vivo biodistribution ([2]; pancreas, 5 min): 16.19 ± 1.99 %ID/g
Ex vivo biodistribution ([2]; pancreas, 15 min): 5.75 ± 2.56 %ID/g
Ex vivo biodistribution ([2]; pancreas, 30 min): 1.26 ± 0.25 %ID/g
Ex vivo biodistribution ([2]; pancreas, 60 min): 0.76 ± 0.55 %ID/g
Ex vivo biodistribution ([2]; small intestine, 5 min): 58.87 ± 18.10 %ID/g
Ex vivo biodistribution ([2]; small intestine, 15 min): 58.62 ± 13.63 %ID/g
Ex vivo biodistribution ([2]; small intestine, 30 min): 20.55 ± 17.97 %ID/g
Ex vivo biodistribution ([2]; small intestine, 60 min): 26.44 ± 36.34 %ID/g
Ex vivo biodistribution ([2]; spleen, 5 min): 4.38 ± 0.99 %ID/g
Ex vivo biodistribution ([2]; spleen, 15 min): 2.12 ± 1.24 %ID/g
Ex vivo biodistribution ([2]; spleen, 30 min): 0.52 ± 0.07 %ID/g
Ex vivo biodistribution ([2]; spleen, 60 min): 0.39 ± 0.29 %ID/g
initial radioactive signals in peripheral organs ([2]; spleen, heart, lungs, pancreas, stomach, small intestine, kidneys, liver): > 4 %ID/g
Ex vivo biodistribution ([2]; stomach, 5 min): 5.72 ± 2.69 %ID/g
Ex vivo biodistribution ([2]; stomach, 15 min): 5.69 ± 1.06 %ID/g
Ex vivo biodistribution ([2]; stomach, 30 min): 7.88 ± 5.2 %ID/g
Ex vivo biodistribution ([2]; stomach, 60 min): 2.41 ± 1.31 %ID/g
radioactivity levels under blocking with GNE-0877 (LRRK2 [3]; LRRK2-deficient brain regions (cerebellum and midbrain)): no obvious blocking results
radioactivity levels under blocking with GNE-0877 (LRRK2 [3]; LRRK2-rich brain regions (hippocampus, cerebral cortex, striatum, thalamus)): significantly reduced
parent fraction in mouse brain homogenate [4]: 69%
parent fraction in plasma ([5]; 30 min post tracer administration): 38%
parent fraction in plasma ([5]; 60 min post tracer administration): 23%
SMILES: N#Cc1cccc(-c2c[nH]c3ncnc(N4CCOCC4)c23)c1[18F] [[^18F]4]
increase of radioactivity accumulation based on AUC (LRRK2-G2019S): around 22%
